Data reported in publication PMC12198292, “Advancing in vitro assessment of iodide uptake inhibition: integrating a novel biotransformation pretreatment step” (Archives of Toxicology, 2025).
≈ marks a conversion by molar mass, not a printed value. Where “and” joins values, the source holds several entries; their conditions need not be identical. Equal values may be shown once. Read-outs that look alike come from different tables or passages of the source.

Assays:
human NIS [1] = target: T1, human NIS (Homo sapiens, UniProt Q92911); assay: NIS-inhibition assay (iodide uptake, Sandell–Kolthoff reaction) on HEK293T NIS 02; type: cell-based; parameters: host or cells: HEK293T (lentiviral transduction, puromycin selection, GFP sorting; lines NIS 02 and NIS C)
T1 sequence (Q92911 1-643): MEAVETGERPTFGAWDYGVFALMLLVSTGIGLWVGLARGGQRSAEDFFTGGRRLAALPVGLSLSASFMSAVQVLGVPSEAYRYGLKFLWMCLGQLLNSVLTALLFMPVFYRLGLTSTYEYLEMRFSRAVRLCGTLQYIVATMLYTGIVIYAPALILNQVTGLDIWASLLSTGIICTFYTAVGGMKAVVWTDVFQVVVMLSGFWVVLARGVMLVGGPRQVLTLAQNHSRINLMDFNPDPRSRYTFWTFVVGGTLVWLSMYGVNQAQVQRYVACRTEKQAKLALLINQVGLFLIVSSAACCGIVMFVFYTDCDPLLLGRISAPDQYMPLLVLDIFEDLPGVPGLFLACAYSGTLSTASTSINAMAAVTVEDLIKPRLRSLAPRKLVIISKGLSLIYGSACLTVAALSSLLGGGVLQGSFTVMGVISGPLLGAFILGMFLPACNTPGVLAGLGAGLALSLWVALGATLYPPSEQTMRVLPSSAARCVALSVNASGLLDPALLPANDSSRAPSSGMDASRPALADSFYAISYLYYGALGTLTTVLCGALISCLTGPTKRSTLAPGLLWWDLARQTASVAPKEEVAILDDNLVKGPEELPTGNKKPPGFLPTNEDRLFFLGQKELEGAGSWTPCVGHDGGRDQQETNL

human NIS [2] = target: T1, human NIS; assay: Biotransformation (BTS, rat S9)-augmented NIS-inhibition assay, HEK293T NIS02; details: for effect of fully active BTS (W/S9, W/cof) on NIS inhibition versus control setups: two-way ANOVA, p < 0.05
human NIS [3] = target: T1, human NIS
in vitro = details: human
human NIS [4] = target: T1, human NIS; assay: NIS-inhibition assay (iodide uptake, Sandell–Kolthoff reaction) on HEK293T NIS C; type: cell-based; parameters: host or cells: HEK293T (lentiviral transduction, puromycin selection, GFP sorting; lines NIS 02 and NIS C); details: for NIS IC50 HEK293T NIS C: mean ± SD, ≥ 3 independent experiments, 2 h exposure, SK reaction
HEK293T NIS C cells = assay: Neutral red uptake viability assay, HEK293T NIS C; details: mean±SD, 2 h exposure
human NIS [5] = target: T1, human NIS; parameters: host or cells: HEK293T (lentiviral transduction, puromycin selection, GFP sorting; lines NIS 02 and NIS C); details: hNIS-HEK293T-EPA, RAIU, cited from earlier work; for IC50: read-out: Data from literature NIS IC50; for IC20: read-out: Data from literature NIS IC20
[6] = parameters: method as in PubChem https://pubchem.ncbi.nlm.nih.gov/; details: ref PubChem https://pubchem.ncbi.nlm.nih.gov/; cited from earlier work
[7] = parameters: method as in PubChem https://pubchem.ncbi.nlm.nih.gov/; details: ref PubChem https://pubchem.ncbi.nlm.nih.gov/; cited from earlier work; remark: listed apart in the source
NIS [8] = target: T2, NIS (Rattus norvegicus, UniProt Q63008); details: FRTL-5, RAIU, ref Buckalew et al., 2020, cited from earlier work; for IC50: read-out: Data from literature NIS IC50
T2 construct: the endogenously NIS-expressing rat FRTL-5 cell line; host or cells: FRTL-5 (CVCL_0265)
T2 sequence (Q63008 1-618): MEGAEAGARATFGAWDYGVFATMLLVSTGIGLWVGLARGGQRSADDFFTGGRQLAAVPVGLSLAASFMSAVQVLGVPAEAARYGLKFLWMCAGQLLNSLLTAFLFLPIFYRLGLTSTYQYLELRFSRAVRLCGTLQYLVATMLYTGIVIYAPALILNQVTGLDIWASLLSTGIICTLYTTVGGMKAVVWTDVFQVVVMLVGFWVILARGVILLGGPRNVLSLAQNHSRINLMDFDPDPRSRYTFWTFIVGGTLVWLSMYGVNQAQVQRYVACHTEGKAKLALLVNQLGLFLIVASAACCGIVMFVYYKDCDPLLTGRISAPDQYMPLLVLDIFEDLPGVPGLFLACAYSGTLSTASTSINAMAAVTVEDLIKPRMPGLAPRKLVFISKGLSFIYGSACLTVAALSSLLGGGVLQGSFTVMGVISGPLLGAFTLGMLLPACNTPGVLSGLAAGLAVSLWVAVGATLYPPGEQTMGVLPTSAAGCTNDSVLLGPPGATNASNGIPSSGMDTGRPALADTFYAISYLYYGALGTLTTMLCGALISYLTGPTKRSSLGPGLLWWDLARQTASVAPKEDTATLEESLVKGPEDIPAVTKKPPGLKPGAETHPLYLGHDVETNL

NIS [9] = target: T2, NIS; assay: NIS-inhibition assay (iodide uptake, Sandell–Kolthoff reaction) on FRTL-5; type: cell-based; details: mean ± SD, ≥ 3 independent experiments; 2 h exposure; SK reaction
FRTL-5 cells = assay: Neutral red uptake viability assay, FRTL-5; details: mean±SD, 2 h exposure
human NIS [10] = target: T1, human NIS; parameters: method as in Dong et al., 2019; details: MCF7hNIS; SK; ref Dong et al., 2019; read-out: Data from literature NIS IC20; cited from earlier work
human NIS [11] = target: T1, human NIS; parameters: host or cells: HEK293T (lentiviral transduction, puromycin selection, GFP sorting; lines NIS 02 and NIS C); method as in Dong et al., 2019; details: hNIS-HEK293T-EPA; SK; ref Dong et al., 2019; cited from earlier work
[12] = ref PubChem https://pubchem.ncbi.nlm.nih.gov/; cited from earlier work
[13] = mean ± SD, ≥ 3 independent experiments, 2 h exposure, SK reaction, read-out: NIS IC50 HEK293T NIS 02
[14] = mean ± SD, ≥ 3 independent experiments, 2 h exposure, SK reaction

Compound | effect of fully active BTS (W/S9, W/cof) on NIS inhibition versus control setups (human NIS [3]) | NR IC20 HEK293T NISC (HEK293T NIS C cells) | IC50 (human NIS [1]; [13]) | IC50 (human NIS [5]; ref Buckalew et al., 2020) | IC50 (human NIS [5]; ref US-EPA, 2024) | Henry‘s law [6] | log Kow [7] | IC50 (NIS [8]) | effect of fully active BTS (W/S9, W/cof) on NIS inhibition versus control setups (human NIS [2]) | IC50 (NIS [9]) | NIS IC50 HEK293T NIS C (human NIS [4]) | NR IC20 FRTL-5 (FRTL-5 cells) | Data from literature NIS IC50 (human NIS [5]; ref Wang et al., 2018) | NIS IC50 HEK293T NIS 02 (human NIS [1]; [14]) | Data from literature NIS IC50 (human NIS [5]; ref US-EPA, 2024) | solubility in water [12] | NIS IC50 FRTL-5 (NIS [9]) | other results
CCOc1cc(C(C)(C)C)ccc1C1COC(c2c(F)cccc2F)=N1 (centres unmarked) [ETX, Etoxazole, reference compound] | no biotransformation-related effect changes were detected | – | – | – | – | – | – | – | – | – | – | – | – | – | – | – | – | IC50 (human NIS [1]; NIS IC50 HEK293T NIS 02): 7.1 ± 4.3 µM; IC20 (human NIS [2]; read-out: NIS inhibition IC20 SM): 0.61 µM; IC20 (in vitro): 28.8 µM; IC50 (human NIS [4]): 11.7 ± 8 µM
O=S(=O)(O)C(F)(F)C(F)(F)C(F)(F)C(F)(F)C(F)(F)C(F)(F)C(F)(F)C(F)(F)F [PFOS, Perfluorooctane sulfonate] | – | n.e. / n.e. | 30.9 ± 21.7 µM | 1.3 µM | 20.5 µM | 4.34x10^-7 atm- m^3/mol | -1.08 | 0.4 µM | no significant differences were observed | 9.3 µM and 9.31 µM | n.e and n.e. / n.e. | n.e. | – | – | – | – | – | IC50 (human NIS [5]; ref Wang et al., 2018): 16.6 µM; IC50 (human NIS [5]; ref Wang et al., 2019): 17 µM
CCCCOC(=O)c1ccccc1C(=O)OCCCC [DBP, Dibutylphthalate] | statistically significant reduction in NIS inhibition | – | 51.7 µM and 52 µM | – | 26.9 µM | 1.81x10^-6 atm- m^3/mol | 4.5 | – | – | 92.3 ± 11.8 µM | n.e and n.e. | – | n.e. | – | – | – | – | IC20 (human NIS [5]; ref Dong et al., 2019): 26.9 µM; IC20 (human NIS [5]; ref Hallinger et al., 2017): 191 µM; IC20 (human NIS [10]): 63.1 µM; increase of IC20 by preincubation in fully active BTS setup compared to the denatured BTS setup (human NIS [2]; W/S9, W/cof vs D S9, W/cof): more than ninefold; IC20 (human NIS [3]): 5.57 ± 4.6 µM; Data from literature NIS IC50 (human NIS [11]): n.e.; IC20 at 2 h (in vitro): 42 µM
O=C(O)C(F)(F)C(F)(F)C(F)(F)C(F)(F)C(F)(F)C(F)(F)C(F)(F)F [PFOA, Perfluorooctanoic acid] | – | n.e./ n.e. | – | 75.9 µM | – | – | – | 25.1 µM | – | – | n.e and n.e./ n.e. | n.e. / n.e. | n.e. | n.e and n.e. / n.e. | n.e. | 3300 µg/mL (≈ 7.97 mM) | n.e and n.e. / n.e. | –
Cn1cc[nH]c1=S [MMI, Methimazole, reference compound] | – | n.e./ n.e. | – | – | – | – | -0.34 | – | – | – | n.e and n.e./ n.e. | n.e. / n.e. | – | n.e and n.e./ n.e. | n.e. | 200000 µg/mL (≈ 1750 mM) | n.e and n.e. / n.e. | Data from literature NIS IC50 (human NIS [5]; ref Buckalew et al., 2020): n.e.; Data from literature NIS IC50 (human NIS [5]; ref Hallinger et al., 2017): n.e.; Data from literature NIS IC50 (human NIS [5]; ref Wang et al., 2019): n.e.; Data from literature NIS IC50 (NIS [8]): n.e.
COc1ccc(C(c2ccc(OC)cc2)C(Cl)(Cl)Cl)cc1 [MET, Methoxychlor, reference compound] | – | n.e./ n.e. | 11 ± 8.7 µM | – | – | 2.03x10^-7 atm- m^3/mol | 5.08 | – | no biotransformation-related effect changes were detected | 218 ± 4.3 µM | n.e and n.e./ n.e. | 218±4.3 / n.e. | n.e. | – | – | 0.04 µg/mL (≈ 0.000116 mM) | – | IC20 (human NIS [5]; ref US-EPA, 2024): 12.6 µM; IC20 (human NIS [2]; read-out: NIS inhibition IC20 D S9, W/cof, 5 h preincubation with denatured S9 and cofactors, three independent experiments): 20.7 ± 19.5 µM; IC20 (human NIS [2]; read-out: NIS inhibition IC20 W/O S9, W/cof, 5 h preincubation without S9 fraction, with all cofactors, three independent experiments): > 500 µM
